Test results: patent US12151019B2, “Compositions for blood storage and transfusions” (Albert Einstein College of Medicine, priority 2020, dated 2024)

Experiment: Loading potential / solubility in PEG400/myristic acid vehicles and in water
Type: physicochemical
Settings: for dissolved material in aqueous solution: aqueous sample compared with Sample 3
Method: Vehicles for loading the active ingredient were prepared as illustrated in samples 1-4. Myristic acid (solid flakes) was dissolved in PEG400 upon warming the mixture in a warm water bath. Shaking accelerated the formation of the resulting clear solution. The following four concentrations of myristic acid (MA) in PEG400 were prepared and evaluated. Samples 1, 2, 3 and 4 were all clear solutions when the samples were allowed to attain ambient temperatures. • a. 30 ml of PEG400+1.5 grams of MA (Sample 1) • b. 30 ml of PEG400+3 grams of MA (Sample 2) • c. 30 ml of PEG400+0.75 grams of MA (Sample 3) • d. 30 ml of PEG400+2.25 grams of MA (Sample 4)
The samples as vehicles were loaded with NO enhancing agent. […] Samples 1 and 2 were initially liquid but formed a solid uniform gel over a period of several hours. Sample 3 was prepared by dissolving 0.75 grams of MA in 30 ml's of PEG400 and heating in a water bath (˜60-80 C) for ˜15 minutes. Sample 4 was prepared by dissolving 2.25 grams of MA in 30 mls of PEG400 and heating in a water bath (˜60-80 C) for ˜15 minutes. Both sample 3 and sample 4 were uniform solutions when the heating cycle was finished. Upon cooling sample 3 remained liquid whereas sample 4 formed a uniform gel.
The addition of water to the PEG400/MA based formulation can create a nonuniform emulsion that poses difficulties for topical use.
The Sample 3 solvent system was also tested as a vehicle for loading potential with the following low solubility reagents using the above method: quercetin, berberine, N-acetyl cysteine amide (NACA) and N-acetyl cysteine ethyl ester (NAC-ethylester).

Compound | dissolved material in aqueous solution | solubility of quercetin in sample 3 or sample 4 (either sample 3 or sample 4 vehicle) | dissolving of added curcumin in PEG400/myristic acid (1.5 grams of Curcumin 95 added to Samples 1, 2, 3 (30 ml PEG400 + MA), warmed, shaken, cooled to ambient)
O=c1c(O)c(-c2ccc(O)c(O)c2)oc2cc(O)cc(O)c12 [quercetin] | minimal dissolved material | 200-300 mg quercetin in 30 ml | 
COc1ccc2cc3[n+](cc2c1OC)CCc1cc2c(cc1-3)OCO2 [berberine] | minimal dissolved material |  | 
COc1cc(/C=C/C(=O)CC(=O)/C=C/c2ccc(O)c(OC)c2)ccc1O [Curcumin 95] |  |  | dissolving of almost all of the added curcumin
